Laboratory results from BigSolDB 2.1.

CC(CCC(=O)O)(c1ccc(O)cc1)c1ccc(O)cc1
Conditions | solubility (mole fraction)
in acetone, 288.15 K | 0.125
in acetone, 291.15 K | 0.127
in acetone, 294.15 K | 0.13
in acetone, 297.15 K | 0.134
in acetone, 300.15 K | 0.137
in acetone, 303.15 K | 0.14
in acetone, 306.15 K | 0.143
in acetone, 309.15 K | 0.146
in acetone, 312.15 K | 0.15
in acetone, 315.15 K | 0.153
in acetone, 318.15 K | 0.157
in acetonitrile, 288.15 K | 0.00804
in acetonitrile, 291.15 K | 0.00871
in acetonitrile, 294.15 K | 0.00973
in acetonitrile, 297.15 K | 0.0106
in acetonitrile, 300.15 K | 0.0116
in acetonitrile, 303.15 K | 0.013
in acetonitrile, 306.15 K | 0.0144
in acetonitrile, 309.15 K | 0.0162
in acetonitrile, 312.15 K | 0.0181
in acetonitrile, 315.15 K | 0.0208
in acetonitrile, 318.15 K | 0.0238
in ethanol, 288.15 K | 0.0989
in ethanol, 291.15 K | 0.103
in ethanol, 294.15 K | 0.107
in ethanol, 297.15 K | 0.11
in ethanol, 300.15 K | 0.114
in ethanol, 303.15 K | 0.118
in ethanol, 306.15 K | 0.123
in ethanol, 309.15 K | 0.129
in ethanol, 312.15 K | 0.136
in ethanol, 315.15 K | 0.142
in ethanol, 318.15 K | 0.148
in ethyl acetate, 288.15 K | 0.0498
in ethyl acetate, 291.15 K | 0.0509
in ethyl acetate, 294.15 K | 0.052
in ethyl acetate, 297.15 K | 0.0533
in ethyl acetate, 300.15 K | 0.0553
in ethyl acetate, 303.15 K | 0.0576
in ethyl acetate, 306.15 K | 0.0604
in ethyl acetate, 309.15 K | 0.0637
in ethyl acetate, 312.15 K | 0.0667
in ethyl acetate, 315.15 K | 0.0696
in ethyl acetate, 318.15 K | 0.0727
in ethyl formate, 288.15 K | 0.0113
in ethyl formate, 291.15 K | 0.0116
in ethyl formate, 294.15 K | 0.012
in ethyl formate, 297.15 K | 0.0127
in ethyl formate, 300.15 K | 0.0136
in ethyl formate, 303.15 K | 0.0146
in ethyl formate, 306.15 K | 0.0155
in ethyl formate, 309.15 K | 0.0166
in ethyl formate, 312.15 K | 0.0183
in ethyl formate, 315.15 K | 0.0202
in ethyl formate, 318.15 K | 0.0221
in isopropanol, 288.15 K | 0.063
in isopropanol, 291.15 K | 0.0631
in isopropanol, 294.15 K | 0.0634
in isopropanol, 297.15 K | 0.0637
in isopropanol, 300.15 K | 0.0651
in isopropanol, 303.15 K | 0.0665
in isopropanol, 306.15 K | 0.0687
in isopropanol, 309.15 K | 0.0718
in isopropanol, 312.15 K | 0.077
in isopropanol, 315.15 K | 0.0829
in isopropanol, 318.15 K | 0.0914
in methanol, 288.15 K | 0.096
in methanol, 291.15 K | 0.0983
in methanol, 294.15 K | 0.101
in methanol, 297.15 K | 0.104
in methanol, 300.15 K | 0.106
in methanol, 303.15 K | 0.11
in methanol, 306.15 K | 0.114
in methanol, 309.15 K | 0.119
in methanol, 312.15 K | 0.123
in methanol, 315.15 K | 0.127
in methanol, 318.15 K | 0.131
in methyl acetate, 288.15 K | 0.0453
in methyl acetate, 291.15 K | 0.0477
in methyl acetate, 294.15 K | 0.0497
in methyl acetate, 297.15 K | 0.0526
in methyl acetate, 300.15 K | 0.0559
in methyl acetate, 303.15 K | 0.0594
in methyl acetate, 306.15 K | 0.063
in methyl acetate, 309.15 K | 0.0668
in methyl acetate, 312.15 K | 0.0713
in methyl acetate, 315.15 K | 0.0775
in methyl acetate, 318.15 K | 0.085
in n-butanol, 288.15 K | 0.0712
in n-butanol, 291.15 K | 0.0763
in n-butanol, 294.15 K | 0.0814
in n-butanol, 297.15 K | 0.0867
in n-butanol, 300.15 K | 0.0919
in n-butanol, 303.15 K | 0.0971
in n-butanol, 306.15 K | 0.102
in n-butanol, 309.15 K | 0.107
in n-butanol, 312.15 K | 0.112
in n-butanol, 315.15 K | 0.116
in n-butanol, 318.15 K | 0.12
in n-butyl acetate, 288.15 K | 0.0117
in n-butyl acetate, 291.15 K | 0.0143
in n-butyl acetate, 294.15 K | 0.0169
in n-butyl acetate, 297.15 K | 0.0199
in n-butyl acetate, 300.15 K | 0.0227
in n-butyl acetate, 303.15 K | 0.0258
in n-butyl acetate, 306.15 K | 0.029
in n-butyl acetate, 309.15 K | 0.0325
in n-butyl acetate, 312.15 K | 0.0356
in n-butyl acetate, 315.15 K | 0.039
in n-butyl acetate, 318.15 K | 0.0428
in n-propanol, 288.15 K | 0.0352
in n-propanol, 291.15 K | 0.0384
in n-propanol, 294.15 K | 0.0416
in n-propanol, 297.15 K | 0.046
in n-propanol, 300.15 K | 0.0502
in n-propanol, 303.15 K | 0.0541
in n-propanol, 306.15 K | 0.0588
in n-propanol, 309.15 K | 0.0631
in n-propanol, 312.15 K | 0.0671
in n-propanol, 315.15 K | 0.0732
in n-propanol, 318.15 K | 0.0803
in n-propyl acetate, 288.15 K | 0.0291
in n-propyl acetate, 291.15 K | 0.0298
in n-propyl acetate, 294.15 K | 0.0309
in n-propyl acetate, 297.15 K | 0.032
in n-propyl acetate, 300.15 K | 0.0336
in n-propyl acetate, 303.15 K | 0.0358
in n-propyl acetate, 306.15 K | 0.0379
in n-propyl acetate, 309.15 K | 0.0403
in n-propyl acetate, 312.15 K | 0.0433
in n-propyl acetate, 315.15 K | 0.0472
in n-propyl acetate, 318.15 K | 0.0507
in sec-butanol, 288.15 K | 0.0823
in sec-butanol, 291.15 K | 0.0876
in sec-butanol, 294.15 K | 0.0926
in sec-butanol, 297.15 K | 0.0978
in sec-butanol, 300.15 K | 0.103
in sec-butanol, 303.15 K | 0.11
in sec-butanol, 306.15 K | 0.117
in sec-butanol, 309.15 K | 0.124
in sec-butanol, 312.15 K | 0.129
in sec-butanol, 315.15 K | 0.135
in sec-butanol, 318.15 K | 0.14
